Results from PubChem BioAssay (NCI).
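How tested: cells in 96-well plates exposed to compound for 48 hours at five concentrations. TGI: total growth inhibition.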

Legend:
Experiment in all cases: NCI-60 cell line screen, 48 h
M19-MEL melanoma = system: M19-MEL melanoma
NCI-H23 lung = system: NCI-H23 lung
MALME-3M melanoma = system: MALME-3M melanoma
HCC-2998 colon = system: HCC-2998 colon
HOP-92 NSCLC = system: HOP-92 NSCLC
NCI-H522 lung = system: NCI-H522 lung
SK-MEL-5 melanoma = system: SK-MEL-5 melanoma
SR leukemia = system: SR leukemia
DLD-1 colon = system: DLD-1 colon
OVCAR-8 ovarian = system: OVCAR-8 ovarian
HOP-62 NSCLC = system: HOP-62 NSCLC
DMS 114 small cell lung = system: DMS 114 small cell lung
DMS 273 small cell lung = system: DMS 273 small cell lung
HL-60(TB) leukemia = system: HL-60(TB) leukemia
UACC-257 melanoma = system: UACC-257 melanoma
786-0 renal = system: 786-0 renal
SF-295 CNS = system: SF-295 CNS
NCI-H226 lung = system: NCI-H226 lung
SF-268 CNS = system: SF-268 CNS
KM12 colon = system: KM12 colon
NCI-H460 lung = system: NCI-H460 lung
IGROV1 ovarian = system: IGROV1 ovarian
CAKI-1 renal = system: CAKI-1 renal
SK-OV-3 ovarian = system: SK-OV-3 ovarian
HOP-18 NSCLC = system: HOP-18 NSCLC
A549 NSCLC = system: A549 NSCLC
HCT-15 colon = system: HCT-15 colon
EKVX NSCLC = system: EKVX NSCLC
OVCAR-4 ovarian = system: OVCAR-4 ovarian
UO-31 renal = system: UO-31 renal
HCT-116 colon = system: HCT-116 colon
XF 498 CNS = system: XF 498 CNS
SF-539 CNS = system: SF-539 CNS
RXF 393 renal = system: RXF 393 renal
SN12C renal = system: SN12C renal
KM20L2 colon = system: KM20L2 colon
HT29 colon = system: HT29 colon
SNB-19 CNS = system: SNB-19 CNS
SW-620 colon = system: SW-620 colon
UACC-62 melanoma = system: UACC-62 melanoma
M14 melanoma = system: M14 melanoma
SK-MEL-28 melanoma = system: SK-MEL-28 melanoma
TK-10 renal = system: TK-10 renal
LXFL 529 NSCLC = system: LXFL 529 NSCLC
MOLT-4 leukemia = system: MOLT-4 leukemia
OVCAR-3 ovarian = system: OVCAR-3 ovarian
LOX IMVI melanoma = system: LOX IMVI melanoma
CCRF-CEM leukemia = system: CCRF-CEM leukemia
SNB-75 CNS = system: SNB-75 CNS
COLO 205 colon = system: COLO 205 colon
SK-MEL-2 melanoma = system: SK-MEL-2 melanoma
ACHN renal = system: ACHN renal
SNB-78 CNS = system: SNB-78 CNS
OVCAR-5 ovarian = system: OVCAR-5 ovarian
U251 CNS = system: U251 CNS
RPMI-8226 leukemia = system: RPMI-8226 leukemia
K-562 leukemia = system: K-562 leukemia
A498 renal = system: A498 renal

Measured: TGI

CC1(C2COC(=O)C2)SCCCS1 (centres undefined)
28.1 µM: UO-31 renal
> 100 µM: M19-MEL melanoma | NCI-H23 lung | MALME-3M melanoma | HCC-2998 colon | HOP-92 NSCLC | SK-MEL-5 melanoma | SR leukemia | DLD-1 colon | OVCAR-8 ovarian | HOP-62 NSCLC | DMS 114 small cell lung | DMS 273 small cell lung | HL-60(TB) leukemia | UACC-257 melanoma | 786-0 renal | SF-295 CNS | NCI-H226 lung | SF-268 CNS | KM12 colon | NCI-H460 lung | IGROV1 ovarian | CAKI-1 renal | SK-OV-3 ovarian | HOP-18 NSCLC | A549 NSCLC | HCT-15 colon | EKVX NSCLC | OVCAR-4 ovarian | HCT-116 colon | XF 498 CNS | SF-539 CNS | RXF 393 renal | SN12C renal | KM20L2 colon | HT29 colon | SNB-19 CNS | SW-620 colon | UACC-62 melanoma | M14 melanoma | SK-MEL-28 melanoma | TK-10 renal | LXFL 529 NSCLC | MOLT-4 leukemia | OVCAR-3 ovarian | LOX IMVI melanoma | CCRF-CEM leukemia | SNB-75 CNS | COLO 205 colon | SK-MEL-2 melanoma | ACHN renal
10.9 µM: NCI-H522 lung

Cc1cccc2c1Sc1ccccc1C2NC(=O)CN(C)C (centres undefined)
> 100 µM: M19-MEL melanoma | NCI-H23 lung | SNB-78 CNS | HCC-2998 colon | SK-MEL-5 melanoma | SR leukemia | OVCAR-5 ovarian | OVCAR-8 ovarian | HOP-62 NSCLC | DMS 114 small cell lung | DMS 273 small cell lung | HL-60(TB) leukemia | UACC-257 melanoma | NCI-H226 lung | SF-268 CNS | U251 CNS | NCI-H460 lung | IGROV1 ovarian | SK-OV-3 ovarian | A549 NSCLC | RPMI-8226 leukemia | HCT-15 colon | EKVX NSCLC | OVCAR-4 ovarian | UO-31 renal | K-562 leukemia | HCT-116 colon | XF 498 CNS | SF-539 CNS | RXF 393 renal | SN12C renal | HT29 colon | SNB-19 CNS | SW-620 colon | UACC-62 melanoma | M14 melanoma | SK-MEL-28 melanoma | TK-10 renal | LXFL 529 NSCLC | MOLT-4 leukemia | LOX IMVI melanoma | CCRF-CEM leukemia | COLO 205 colon | ACHN renal
86.7 µM: SNB-75 CNS
37.4 µM: KM20L2 colon

CC(C)=CCC/C(C)=C/Cc1c(O)c(C)cc2c1[nH]c1cc(O)ccc12
> 25 µM: M19-MEL melanoma | MALME-3M melanoma | SNB-78 CNS | HCC-2998 colon | HOP-92 NSCLC | NCI-H522 lung | SK-MEL-5 melanoma | SR leukemia | DLD-1 colon | OVCAR-5 ovarian | OVCAR-8 ovarian | HOP-62 NSCLC | DMS 114 small cell lung | DMS 273 small cell lung | HL-60(TB) leukemia | 786-0 renal | NCI-H226 lung | SF-268 CNS | U251 CNS | KM12 colon | NCI-H460 lung | IGROV1 ovarian | SK-OV-3 ovarian | A549 NSCLC | RPMI-8226 leukemia | HCT-15 colon | OVCAR-4 ovarian | UO-31 renal | K-562 leukemia | HCT-116 colon | SF-539 CNS | RXF 393 renal | SN12C renal | KM20L2 colon | HT29 colon | SNB-19 CNS | SW-620 colon | UACC-62 melanoma | M14 melanoma | SK-MEL-28 melanoma | TK-10 renal | LXFL 529 NSCLC | MOLT-4 leukemia | OVCAR-3 ovarian | LOX IMVI melanoma | CCRF-CEM leukemia | COLO 205 colon | SK-MEL-2 melanoma | ACHN renal

CN(C)N=Nc1cccc(C(N)=O)c1
> 100 µM: M19-MEL melanoma | NCI-H23 lung | MALME-3M melanoma | SNB-78 CNS | HCC-2998 colon | HOP-92 NSCLC | SK-MEL-5 melanoma | SR leukemia | DLD-1 colon | OVCAR-8 ovarian | DMS 114 small cell lung | DMS 273 small cell lung | HL-60(TB) leukemia | 786-0 renal | SF-295 CNS | NCI-H226 lung | SF-268 CNS | U251 CNS | KM12 colon | NCI-H460 lung | IGROV1 ovarian | CAKI-1 renal | SK-OV-3 ovarian | HOP-18 NSCLC | A549 NSCLC | RPMI-8226 leukemia | HCT-15 colon | EKVX NSCLC | OVCAR-4 ovarian | UO-31 renal | K-562 leukemia | HCT-116 colon | XF 498 CNS | SF-539 CNS | RXF 393 renal | SN12C renal | KM20L2 colon | HT29 colon | SNB-19 CNS | SW-620 colon | M14 melanoma | A498 renal | SK-MEL-28 melanoma | TK-10 renal | LXFL 529 NSCLC | MOLT-4 leukemia | OVCAR-3 ovarian | CCRF-CEM leukemia | SNB-75 CNS | COLO 205 colon | SK-MEL-2 melanoma | ACHN renal
